Assays:
[1] = tested on: C2O4^2− transport, MDCK cells; test: In vitro litholytic activity: C2O4^2− transport inhibition, Transwell chamber with MDCK cells; format: cell-based, canine; conditions: Canis lupus familiaris; 100 μmol/L, MDCK cells in Transwell; mean ± SD of three replicates; read-out: Transport Inhibition Rate (%) C2O4^2−
In short: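 MDCK monolayers in Transwell upper chamber, used once resistance ≥300 Ω cm^2, treated 24 h with compounds at 100 μmol/L or saline. CaC2O4 (30 mmol/L) then added above, PBS below; lower-chamber Ca^2+ and C2O4^2− measured by kit at 0.5, 1, 2, 3 h, inhibition rate from OD versus blank.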

MDCK cells = test: MTT cytotoxicity assay on MDCK cells; format: cell-based, canine; conditions: Canis lupus familiaris, 100 μmol/L, 24 h, mean ± SD of three replicates, read-out: Growth Inhibition Rate (%)
In short: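 MDCK cells at 10^4/well, grown 24 h, exposed 24 h to compound at 100 μmol/L (saline control; hydrochlorothiazide 100 μmol/L reference). MTT 4 h, DMSO solubilization, OD 490 nm; growth inhibition % = (ODblank − ODexperimental)/ODblank × 100.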

mice = tested on: mice; design: method as in PMID 32602352; conditions: cited from earlier work
[2] = tested on: Cl^− transport, MDCK cells; test: In vitro diuretic activity: Cl^− transport inhibition, Transwell chamber seeded with MDCK cells; format: cell-based, canine; conditions: Canis lupus familiaris; 100 μmol/L, MDCK cells in Transwell; mean ± SD of three replicates; negative = promotion; read-out: Transport Inhibition Rate (%) Cl^−
In short: (§1)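 MDCK monolayers on Transwell inserts (resistance ≥300 Ω cm^2) exposed apically to compounds at 100 μmol/L for 24 h. Then 15 mg/mL NaCl added to upper chamber; Na^+ and Cl^− in lower fluid measured by kit OD at 0.5, 1, 2 and 3 h. Inhibition % = (ODblank − ODexperimental)/ODblank × 100, blank = normal saline.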

[3] = tested on: Ca^2+ transport, MDCK cells; test: In vitro litholytic activity: Ca^2+ transport inhibition, Transwell chamber with MDCK cells; format: cell-based, canine; conditions: Canis lupus familiaris, 100 μmol/L, mean ± SD of three replicates, read-out: Transport Inhibition Rate (%) Ca^2+
[4] = tested on: Na^+ transport, MDCK cells; test: In vitro diuretic activity: Na^+ transport inhibition, Transwell chamber seeded with MDCK cells; format: cell-based, canine; conditions: Canis lupus familiaris, MDCK, 100 μmol/L, MDCK cells in Transwell; mean ± SD of three replicates; negative = promotion; read-out: Transport Inhibition Rate (%) Na^+
In short: as §1

Row | Compound | inhibition at 100 µM [1] | inhibition at 100 µM (MDCK cells) | diuretic effect on mice (mice) | inhibition at 100 µM [2] | inhibition at 100 µM [3] | inhibition at 100 µM [4] | melting point
1 | COc1cc(C)c(C(=O)Oc2cc(C)c(C(=O)O)c(O)c2C)c(O)c1C [Compound 1, Barbatic acid] | 2.97 ± 2.21% | < 0% | had a diuretic effect on mice | 2.34 ± 1.2% | 8.8 ± 0.18% | 12.3 ± 0.5% | –
2 | C=CCOC(=O)c1c(C)cc(OC(=O)c2c(C)cc(OC(C)C)c(C)c2O)c(C)c1O [Compound 6z, allyl 2-hydroxy-4-(2-hydroxy-4-isopropoxy-3,6-dimethylbenzoyloxy)-3,6-dimethylbenzoate] | 0.23 ± 2.16% | 2.47 ± 0.5% | – | -32.6 ± 3.1% | -2.56 ± 0.17% | -22.7 ± 1.05% | 111 to 114 °C
